This assay addresses T1, PelD^Bc (PelD^Bc150-407; also PelD^Bc170-403).
T1 construct: gene BCE_5583
The conditions noted are these: 20 mM HEPES pH 8.0, 150 mM NaCl, 5% glycerol, 1 mM DTT; 25 μM protein, 450 μM c-di-GMP in syringe; single-site model; proposed I-site (RxxD).

Structures are written as SMILES.

`Nc1nc2c(ncn2[C@@H]2O[C@@H]3COP(=O)(O)O[C@H]4[C@@H](O)[C@H](n5cnc6c(=O)[nH]c(N)nc65)O[C@@H]4COP(=O)(O)O[C@H]3[C@H]2O)c(=O)[nH]1` [c-di-GMP]: the Kd (in general, the concentration at which binding is half-saturated) was found to be 103 ± 14 nM.
